Biological target: CDK-2 (Homo sapiens, UniProt P24941)
Assay: CDK-2 inhibition (Table 1; fluorescence polarization displacement assay)
Type: binding
Settings: inhibitory effectiveness toward CDK-2
Experimental: The affinity of lead inhibitors binding to CDK-2 and CDK-2/cyclin A were determined by measuring a Ki value using a fluorescence polarization displacement assay. The deacetylated form of compound BMS-250595 was reacted with Alexa Fluor 647 to generate a compound (BMS-Alexa Fluor647) that bound to both proteins and provided a signal for fluorescence polarization displacement. Binding assays were performed in a 384 well Costar NBS coated plate. A total volume of […] contained concentrations of CDK-2 or CDK-2/cyclin A at […], respectively. The concentration of BMS-Alexa Fluor647 was 50 nM. Serial dilutions of compounds were added to 12 wells. The final buffer concentration was 10 mM Hepes, pH 7.5, 150 mM NaCl, and 1 mM DTT. Samples were incubated at room temperature for 15 minutes and then read in an Analyst HT instrument using an excitation and emission wavelength of 580 and 680 nm, respectively. The […] curve fitting tool described by Zhang et al., 2004 (Zhang R., Mayhood T., Lipari P., Wang Y., Durkin D., Syto R., Gesell J., McNemar C., and Windsor W., Analytical Biochemistry 331 (2004) 138-146)

| SMILES | IC50 |
| --- | --- |
| COc1ccc(C(=O)Nc2ccc(C(=O)Nc3ccc(-n4cncn4)cc3)s2)c(C)c1 [Compound 2] | ≤ 1000 nM |
| Cc1cc(N2CCOCC2)ccc1NC(=O)c1ccc(C(=O)Nc2ccc(-n3cncn3)cc2)s1 [Compound 3] | ≤ 1000 nM |
| Cc1cc(OCCO)ccc1NC(=O)c1ccc(C(=O)Nc2ccc(-n3cncn3)cc2)s1 [Compound 4] | ≤ 1000 nM |
| COc1ccc(NC(=O)c2ccc(C(=O)Nc3ccc(-n4cncn4)c(F)c3)o2)c(C)c1 [Compound 5] | ≤ 1000 nM |
| Cc1cc(N2CCOCC2)ccc1NC(=O)c1ccc(C(=O)Nc2ccc(-n3cncn3)c(F)c2)s1 [Compound 6] | ≤ 1000 nM |
| COc1ccc(NC(=O)c2ccc(C(=O)Nc3ccc(-c4nc[nH]n4)c(F)c3)o2)c(C)c1 [Compound 7] | ≤ 1000 nM |
| COc1ccc(C(=O)Nc2ccc(C(=O)Nc3ccc(-c4nc[nH]n4)c(F)c3)s2)c(C)c1 [Compound 8] | ≤ 1000 nM |
| Cc1cc(Cn2ccnc2)ccc1NC(=O)c1ccc(C(=O)Nc2ccc(-n3cncn3)cc2)s1 [Compound 9] | ≤ 1000 nM |
| Cc1cc(Cn2ccnc2)ccc1NC(=O)c1ccc(C(=O)Nc2ccc(-n3cncn3)c(F)c2)s1 [Compound 10] | ≤ 1000 nM |
| Cc1cc(OCCN2CCOCC2)ccc1NC(=O)c1ccc(C(=O)Nc2ccc(-n3cncn3)cc2)s1 [Compound 11] | ≤ 1000 nM |
| Cc1cc(OCCN2CCN(C)CC2)ccc1NC(=O)c1ccc(C(=O)Nc2ccc(-n3cncn3)cc2)s1 [Compound 12] | ≤ 1000 nM |
| COc1ccc(NC(=O)c2ccc(C(=O)Nc3ccc(-n4cncn4)cc3)s2)c(C)c1 [Compound 13] | ≤ 1000 nM |
| COc1ccc(C(=O)Nc2ccc(C(=O)Nc3ccc(-n4cncn4)c(F)c3)s2)c(C)c1 [Compound 14] | ≤ 1000 nM |
| Cc1cc(N[C@H]2CCNC2)ccc1NC(=O)c1ccc(C(=O)Nc2ccc(-n3cncn3)c(F)c2)s1 [Compound 15] | ≤ 1000 nM |
| Cc1cc(CN2CCOCC2)ccc1NC(=O)c1ccc(C(=O)Nc2ccc(-n3cncn3)cc2)s1 [Compound 16] | ≤ 1000 nM |
| COc1ccc(NC(=O)c2ccc(C(=O)Nc3ccc(-n4cncn4)c(F)c3)s2)c(C)c1 [Compound 17] | ≤ 1000 nM |
| O=C(Nc1ccc(-n2cncn2)cc1)c1ccc(C(=O)NC2CCCCC2)o1 [Compound 18] | ≤ 1000 nM |
| O=C(Nc1ccc(-n2cncn2)c(F)c1)c1ccc(C(=O)Nc2ccccc2Cl)s1 [Compound 19] | ≤ 1000 nM |
| Cc1cc(CN2CCOCC2)ccc1NC(=O)c1ccc(C(=O)Nc2ccc(-n3cncn3)c(F)c2)s1 [Compound 20] | ≤ 1000 nM |
| O=C(Nc1ccc(-n2cncn2)cc1)c1ccc(NC(=O)C2CCCCC2)s1 [Compound 21] | ≤ 1000 nM |
| COc1ccc(NC(=O)c2ccc(C(=O)Nc3ccc(-c4nc[nH]n4)c(F)c3)s2)c(C)c1 [Compound 22] | ≤ 1000 nM |
| Cc1cc(CN2CCN(C)CC2)ccc1NC(=O)c1ccc(C(=O)Nc2ccc(-n3cncn3)c(F)c2)s1 [Compound 23] | ≤ 1000 nM |
| Cc1ccccc1NC(=O)c1ccc(C(=O)Nc2ccc(-n3cncn3)cc2)s1 [Compound 24] | ≤ 1000 nM |
| COc1ccc(NC(=O)c2ccc(C(=O)Nc3ccc(-c4nnc[nH]4)cc3)s2)c(C)c1 [Compound 25] | ≤ 1000 nM |
| COc1ccc(NC(=O)c2ccc(C(=O)Nc3ccc(-n4cncn4)cc3)o2)c(C)c1 [Compound 26] | ≤ 1000 nM |

| SMILES | IC50 |
| --- | --- |
| O=C(Nc1ccc(-n2cncn2)c(F)c1)c1ccc(C(=O)NC2CCCCC2)o1 [Compound 27] | ≤ 1000 nM |
| C[C@H](NC(=O)c1ccc(C(=O)Nc2ccc(-n3cncn3)c(F)c2)o1)C1CCCCC1 [Compound 28] | ≤ 1000 nM |
| Cc1cc(N2CCN(C)CC2)ccc1NC(=O)c1ccc(C(=O)Nc2ccc(-n3cncn3)cc2)s1 [Compound 29] | ≤ 1000 nM |
| Cc1cc(N2CCNCC2)ccc1NC(=O)c1ccc(C(=O)Nc2ccc(-n3cncn3)cc2)s1 [Compound 30] | ≤ 1000 nM |
| Cc1ccccc1NC(=O)c1ccc(C(=O)Nc2ccc(-n3cncn3)cc2)o1 [Compound 31] | ≤ 1000 nM |
| Cc1cc(CN2CCN(C)CC2)ccc1NC(=O)c1ccc(C(=O)Nc2ccc(-n3cncn3)cc2)s1 [Compound 32] | ≤ 1000 nM |
| Cc1cc(O)ccc1NC(=O)c1ccc(C(=O)Nc2ccc(-n3cncn3)cc2)s1 [Compound 33] | ≤ 1000 nM |
| Cc1ccccc1C(=O)Nc1ccc(C(=O)Nc2ccc(-n3cncn3)cc2)s1 [Compound 34] | ≤ 1000 nM |
| COc1ccc(NC(=O)c2ccc(C(=O)Nc3ccc(-n4cncn4)cc3)o2)cc1 [Compound 35] | ≤ 1000 nM |
| Cc1cc(N(C)CCN(C)C)ccc1NC(=O)c1ccc(C(=O)Nc2ccc(-n3cncn3)cc2)s1 [Compound 36] | ≤ 1000 nM |
| O=C(Nc1ccc(-n2cncn2)c(F)c1)c1ccc(C(=O)Nc2ccccc2F)s1 [Compound 37] | ≤ 1000 nM |
| Cc1cc(N[C@H]2CCNC2)ccc1NC(=O)c1ccc(C(=O)Nc2ccc(-n3cncn3)cc2)s1 [Compound 38] | ≤ 1000 nM |
| CN(C(=O)c1ccc(C(=O)Nc2ccc(-n3cncn3)cc2)s1)C1CCCCC1 [Compound 39] | ≤ 1000 nM |
| O=C(Nc1ccc(C(=O)Nc2ccc(-n3cncn3)cc2)s1)c1ccccc1 [Compound 40] | ≤ 1000 nM |
| COc1ccc(NC(=O)c2ccc(C(=O)N3CCC(Oc4cnccn4)CC3)s2)c(C)c1 [Compound 41] | 1000 to 40000 nM |
| COc1ccc(C(=O)Nc2ccc(C(=O)Nc3ccc(-n4cncn4)cc3)s2)cc1 [Compound 42] | 1000 to 40000 nM |
| C[C@@H](NC(=O)c1ccc(C(=O)Nc2ccc(-n3cncn3)c(F)c2)o1)C1CCCCC1 [Compound 43] | 1000 to 40000 nM |
| Cc1cc(NCCN(C)C)ccc1NC(=O)c1ccc(C(=O)Nc2ccc(-n3cncn3)cc2)s1 [Compound 44] | 1000 to 40000 nM |
| O=C(Nc1ccccc1)c1ccc(C(=O)Nc2ccc(-n3cncn3)cc2)o1 [Compound 45] | 1000 to 40000 nM |
| O=C(Nc1ccc(-n2cncn2)c(F)c1)c1ccc(C(=O)Nc2ccccc2C(F)(F)F)s1 [Compound 46] | 1000 to 40000 nM |
| Cc1cc(CN(C)C)ccc1NC(=O)c1ccc(C(=O)Nc2ccc(-n3cncn3)cc2)s1 [Compound 47] | 1000 to 40000 nM |
| Cc1cc(CN(C)C)ccc1NC(=O)c1ccc(C(=O)Nc2ccc(-n3cncn3)c(F)c2)s1 [Compound 48] | 1000 to 40000 nM |
| O=C(Nc1ccc(-n2cncn2)c(F)c1)c1ccc(C(=O)N[C@H]2CC[C@H](O)CC2)o1 [Compound 49] | 1000 to 40000 nM |
| COc1ccc(NC(=O)c2ccc(C(=O)N3CCC(c4ccncc4)C3)s2)c(C)c1 (centres unmarked) [Compound 50] | 1000 to 40000 nM |
| CNCc1ccc(NC(=O)c2ccc(C(=O)Nc3ccc(-n4cncn4)cc3)s2)c(C)c1 [Compound 51] | 1000 to 40000 nM |

| SMILES | IC50 |
| --- | --- |
| O=C(NCCN1CCCC1)c1ccc(C(=O)Nc2ccc(-n3cncn3)cc2)s1 [Compound 52] | 1000 to 40000 nM |
| O=C(Nc1ccc(Cl)cc1)c1ccc(C(=O)Nc2ccc(-n3cncn3)cc2)s1 [Compound 53] | 1000 to 40000 nM |
| O=C(Nc1ccc(-n2cncn2)cc1)c1ccc(C(=O)Nc2cccc(Cl)c2)s1 [Compound 54] | 1000 to 40000 nM |
| Cc1ccsc1CNC(=O)c1ccc(C(=O)Nc2ccc(-n3cncn3)cc2)s1 [Compound 55] | 1000 to 40000 nM |
| O=C(Nc1ccc(-n2cncn2)cc1)c1ccc(C(=O)N[C@H]2CCc3ccccc32)s1 [Compound 56] | 1000 to 40000 nM |
| CC(=O)N1CCC(NC(=O)c2ccc(C(=O)Nc3ccc(-n4cncn4)cc3)s2)CC1 [Compound 57] | 1000 to 40000 nM |
| O=C(Nc1ccc(-n2cncn2)cc1)c1ccc(C(=O)Nc2nc3ccccc3s2)s1 [Compound 58] | 1000 to 40000 nM |
| COc1cccc(NC(=O)c2ccc(C(=O)Nc3ccc(-n4cncn4)cc3)s2)c1OC [Compound 59] | 1000 to 40000 nM |
| O=C(Nc1ccc(-n2cncn2)cc1)c1ccc(C(=O)Nc2nc3c(s2)CCCC3)s1 [Compound 60] | 1000 to 40000 nM |
| COc1ccc(NC(=O)c2ccc(C(=O)Nc3ccc(-n4cncn4)cc3)s2)cc1Cl [Compound 61] | 1000 to 40000 nM |
| COc1ccc(Cl)cc1NC(=O)c1ccc(C(=O)Nc2ccc(-n3cncn3)cc2)s1 [Compound 62] | 1000 to 40000 nM |
| O=C(NCc1ccccc1)c1ccc(C(=O)Nc2ccc(-n3cncn3)cc2)s1 [Compound 63] | 1000 to 40000 nM |
| Cn1nc(C2CC2)cc1NC(=O)c1ccc(C(=O)Nc2ccc(-n3cncn3)cc2)s1 [Compound 64] | 1000 to 40000 nM |
| COc1ccc(NC(=O)c2ccc(C(=O)Nc3ccc(F)cc3-n3cncn3)s2)c(C)c1 [Compound 65] | 1000 to 40000 nM |
| Cn1nc(-c2ccccc2)cc1NC(=O)c1ccc(C(=O)Nc2ccc(-n3cncn3)cc2)s1 [Compound 66] | 1000 to 40000 nM |
| Cc1cc(NC(=O)c2ccc(C(=O)Nc3ccc(-n4cncn4)cc3)s2)n(C)n1 [Compound 67] | 1000 to 40000 nM |
| COc1ccc(N(C)C(=O)c2ccc(C(=O)Nc3ccc(-n4cncn4)cc3)s2)cc1 [Compound 68] | 1000 to 40000 nM |
| O=C(Nc1ccncc1)c1ccc(C(=O)Nc2ccc(-n3cncn3)cc2)o1 [Compound 69] | 1000 to 40000 nM |
| CNCc1ccc(NC(=O)c2ccc(C(=O)Nc3ccc(-n4cncn4)c(F)c3)s2)c(C)c1 [Compound 70] | 1000 to 40000 nM |
| COc1ccc(NC(=O)c2ccc(C(=O)N3CCC(c4ccccn4)C3)s2)c(C)c1 (centres unmarked) [Compound 71] | 1000 to 40000 nM |
| COc1ccc(N(C)C(=O)c2ccc(C(=O)Nc3ccc(-n4cncn4)cc3)s2)c(C)c1 [Compound 72] | 1000 to 40000 nM |
| O=C(Nc1ccc(-n2cncn2)cc1)c1ccc(C(=O)NC2CCCC2)s1 [Compound 73] | 1000 to 40000 nM |
| O=C(Nc1ccc(-n2cncn2)cc1)c1ccc(C(=O)N2CCc3ccccc3C2)s1 [Compound 74] | 1000 to 40000 nM |
| COC(=O)c1cc(OC)ccc1NC(=O)c1ccc(C(=O)Nc2ccc(-n3cncn3)cc2)s1 [Compound 75] | 1000 to 40000 nM |

Reference: patent US7446195B2, “High affinity thiophene-based and furan-based kinase ligands” (Schering Corporation, priority 2005, dated 2008)
